Assay results taken from patent publication US20180312844A1, “TREATMENT FOR CANCER METASTASIS” (The Board of Regents of the UIniversity of Texas System, priority 2015, published 2018).

How the values were obtained:
[1] = tested on: human melanoma cells (M405, M481, UT10) transplanted subcutaneously; assay: Growth of primary subcutaneous tumors of patient-derived melanoma xenografts in NSG mice; type: in vivo
Excerpt: (§1) Melanoma specimens were obtained with informed consent from all patients according to protocols approved by the Institutional Review Boards of the University of Michigan Medical School (IRBMED approvals HUM00050754 and HUM00050085 (Quintana et al., 2012) and the University of Texas Southwestern Medical Center. Unless otherwise indicated, patient-derived xenografts were established by subcutaneously injecting 100 freshly dissociated melanoma cells into the right flanks of NOD/SCID IL2Rγ^null (NSG) mice in 25% high-protein Matrigel, or by injecting intravenously or intrasplenically, depending on the experiment. The subcutaneous tumors were measured every 10 days until any tumor in the mouse cohort reached 2.5 cm in its largest diameter. Mice were monitored daily for signs of distress and euthanized according to a standard body condition score or when their tumors reached 2.5 cm in largest diameter, whichever came first. […] After intravenous and intrasplenic injections mice were imaged every month until the bioluminescence signal was saturated, then mice were euthanized and organs were analyzed visually and by bioluminescence imaging for the presence of micro and macrometastases. […] Reporters of mitochondrial mass, mitochondrial membrane potential, and ROS were used to stain equal numbers of dissociated melanoma cells and analyzed by flow cytometry. […]

[2] = tested on: human melanoma metastases in visceral organs; assay: Metastatic disease burden by total bioluminescence signal from visceral organs; type: in vivo, NSG mice
Excerpt: as §1

[3] = tested on: circulating human melanoma cells; assay: Frequency of circulating melanoma cells in the blood by flow cytometry; type: in vivo, NSG mice
Excerpt: as §1

melanoma = conditions: at 5 years; 2011 meta-analysis; adjuvant treatment of melanoma; cited from earlier work

## CN(Cc1cnc2nc(N)nc(N)c2n1)c1ccc(C(=O)N[C@@H](CCC(=O)O)C(=O)O)cc1 [Methotrexate]
[1]; low dose methotrexate 1.25 mg/kg/day with thymidine and hypoxanthine, M405, M481, UT10, vs DMSO control, FIG. 5B
  growth of primary subcutaneous tumors: no significant effect
[2]; methotrexate 1.25 mg/kg/day with thymidine and hypoxanthine, M405, M481, UT10, FIG. 5D
  metastatic disease burden: significantly reduced
[3]; methotrexate 1.25 mg/kg/day with thymidine and hypoxanthine, M405, M481, UT10, FIG. 5C
  frequency of circulating melanoma cells in the blood: significantly reduced

## CC(=O)N[C@@H](CS)C(=O)O [NAC, N-acetyl-cysteine]
[1]; NAC 200 mg/kg/day, daily subcutaneous injection, melanomas M405, M481, UT10, vs PBS, FIG. 4A
  growth of primary subcutaneous tumors: In no case did NAC treatment significantly affect
[2]; NAC 200 mg/kg/day s.c., mice transplanted with M405 and M481, FIG. 4C
  metastatic disease burden: significantly increased
[3]; NAC 200 mg/kg/day s.c., mice transplanted with M405 and UT10, FIG. 4B
  frequency of melanoma cells in the blood: significantly increased

## interferon
melanoma
  increase in survival: 3%
